Measured values from PMC9219090 (ACS Omega, 2022).
Values belong to the molecule of their own block, whether it stands above or below them.

Experiments:
Caco-2 [1] = test: Flow cytometric annexin V/PI analysis of apoptosis in Caco-2; format: cell-based, human; conditions: Caco-2, at 3 nM, 72 h, mean ± SEM
MDA-MB 231 [2] = test: MTT antiproliferative evaluation on MDA-MB 231 cells; format: cell-based; conditions: Homo sapiens, MDA-MB-231, 72 h, read-out: IC50 MDA-MB 231
MDA-MB 231 [3] = test: Flow cytometric annexin V/PI analysis of apoptosis in MDA-MB 231; format: cell-based, human; conditions: MDA-MB 231, at 3 nM, 72 h, mean ± SEM
Caco-2 [4] = test: MTT antiproliferative evaluation on Caco-2 cells; format: cell-based; conditions: Homo sapiens, Caco-2, 72 h, read-out: IC50 Caco-2
MMP-2 = target: T1, MMP-2 (Homo sapiens, UniProt P08253); test: MMP-2 Inhibitor Screening Assay Kit; format: biochemical; conditions: read-out: IC50 MMP-2
T1 sequence (P08253 110-660): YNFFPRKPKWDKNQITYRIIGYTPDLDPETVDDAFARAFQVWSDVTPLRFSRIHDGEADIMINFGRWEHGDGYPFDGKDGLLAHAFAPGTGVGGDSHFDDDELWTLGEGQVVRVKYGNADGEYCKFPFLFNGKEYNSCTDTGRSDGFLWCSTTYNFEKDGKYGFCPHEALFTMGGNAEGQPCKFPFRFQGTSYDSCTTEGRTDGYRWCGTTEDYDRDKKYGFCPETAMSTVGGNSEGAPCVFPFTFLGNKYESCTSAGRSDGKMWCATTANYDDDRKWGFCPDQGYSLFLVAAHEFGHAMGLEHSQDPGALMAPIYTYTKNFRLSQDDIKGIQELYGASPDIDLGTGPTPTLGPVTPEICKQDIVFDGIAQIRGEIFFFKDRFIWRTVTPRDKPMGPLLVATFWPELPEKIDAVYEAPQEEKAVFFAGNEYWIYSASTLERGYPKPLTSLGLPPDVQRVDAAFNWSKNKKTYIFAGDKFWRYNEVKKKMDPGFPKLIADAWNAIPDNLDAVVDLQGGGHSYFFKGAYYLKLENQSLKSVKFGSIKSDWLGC

MMP-9 = MMP-9 (Homo sapiens, UniProt P14780); test: MMP-9 Colorimetric Assay Kit for Drug Discovery; format: biochemical; conditions: read-out: IC50 MMP-9
MMP-9, sequence (P14780 94-707): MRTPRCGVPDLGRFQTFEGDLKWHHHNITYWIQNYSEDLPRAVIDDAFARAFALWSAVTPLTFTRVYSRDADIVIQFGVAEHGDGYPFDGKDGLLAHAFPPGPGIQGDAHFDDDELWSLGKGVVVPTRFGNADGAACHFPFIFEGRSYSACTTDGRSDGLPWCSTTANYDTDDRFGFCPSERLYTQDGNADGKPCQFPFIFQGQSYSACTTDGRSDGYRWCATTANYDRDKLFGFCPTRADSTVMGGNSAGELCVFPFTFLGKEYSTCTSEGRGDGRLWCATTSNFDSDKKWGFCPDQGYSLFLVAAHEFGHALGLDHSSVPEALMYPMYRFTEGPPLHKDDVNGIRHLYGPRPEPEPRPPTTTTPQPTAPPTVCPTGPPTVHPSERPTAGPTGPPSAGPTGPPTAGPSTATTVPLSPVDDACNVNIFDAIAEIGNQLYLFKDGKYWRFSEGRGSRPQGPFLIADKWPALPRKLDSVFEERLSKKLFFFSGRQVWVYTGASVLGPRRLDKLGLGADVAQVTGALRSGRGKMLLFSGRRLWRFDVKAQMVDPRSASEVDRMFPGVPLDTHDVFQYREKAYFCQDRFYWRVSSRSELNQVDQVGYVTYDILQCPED

MMP-13 = MMP-13 (Homo sapiens, UniProt P45452); test: MMP-13 Inhibitor Screening Assay Kit; conditions: read-out: IC50 MMP-13
MMP-7 = target: T2, MMP-7 (Homo sapiens, UniProt P09237); test: MMP-7 Inhibitor Screening Assay Kit; conditions: read-out: IC50 MMP-7
T2 sequence (P09237 95-267): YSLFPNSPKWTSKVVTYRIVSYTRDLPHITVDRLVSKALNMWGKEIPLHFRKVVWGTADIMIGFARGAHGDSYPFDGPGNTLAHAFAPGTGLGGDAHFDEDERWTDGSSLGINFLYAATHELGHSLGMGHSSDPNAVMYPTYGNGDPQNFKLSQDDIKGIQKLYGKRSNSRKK

MMP-10 = MMP-10 (Homo sapiens, UniProt P09238); test: MMP-10 Assay Kit; conditions: read-out: IC50 MMP-10
MMP-10, sequence (P09238 99-476): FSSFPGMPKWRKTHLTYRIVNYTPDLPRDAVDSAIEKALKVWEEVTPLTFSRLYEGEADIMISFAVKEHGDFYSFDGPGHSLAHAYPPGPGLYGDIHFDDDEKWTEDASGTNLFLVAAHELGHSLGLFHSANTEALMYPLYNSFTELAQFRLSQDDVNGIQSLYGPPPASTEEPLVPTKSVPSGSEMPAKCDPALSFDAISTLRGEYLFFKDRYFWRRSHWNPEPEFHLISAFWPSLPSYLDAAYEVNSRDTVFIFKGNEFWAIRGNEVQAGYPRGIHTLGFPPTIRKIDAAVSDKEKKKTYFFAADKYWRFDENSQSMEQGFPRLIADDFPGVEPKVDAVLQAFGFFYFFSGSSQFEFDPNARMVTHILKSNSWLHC

tumor growth = conditions: mouse models; cited from earlier work

IC50 (MDA-MB 231 [2]): 10.7 ± 0.3 nM
Molecule: COc1cccc2c1C(=O)c1c(O)c3c(c(O)c1C2=O)C[C@@](O)(C(=O)CO)C[C@@H]3O[C@H]1C[C@H](N)[C@H](O)[C@H](C)O1 [DOX, doxorubicin]
total % of the apoptotic cell population, Caco-2 (Caco-2 [1]): 31.7 ± 2.7% | total % of the apoptotic cell population, Caco-2 (Caco-2 [1]; listed as doxorubicin): < 32% | total % of the apoptotic cell population, MDA-MBA 231 (MDA-MB 231 [3]): 19.9 ± 1.6% | total % of the apoptotic cell population, MDA-MBA 231 (MDA-MB 231 [3]; listed as doxorubicin): < 32%

IC50 (Caco-2 [4]): 52.8 ± 3.8 nM | IC50 (MDA-MB 231 [2]): 70.9 ± 3.7 nM
Molecule: O=C(NNc1nc(O)nc(O)n1)c1ccc(Nc2nc(Nc3ccc(C(=O)NNc4nc(O)nc(O)n4)cc3)nc(Nc3ccc(C(=O)NNc4nc(O)nc(O)n4)cc3)n2)cc1 [compound 12, 4,4′,4′′-((1,3,5-Triazine-2,4,6-triyl)tris(azanediyl))tris(N′-(4,6-dihydroxy-1,3,5-triazin-2-yl)benzohydrazide)]

IC50 (Caco-2 [4]): 38.4 ± 1.6 nM | IC50 (MDA-MB 231 [2]): 94.4 ± 10.6 nM
Molecule: O=C(NO)c1ccc(Nc2nc(Nc3ccc(C(=O)NO)cc3)nc(Nc3ccc(C(=O)NO)cc3)n2)cc1 [compound 13, 4,4′,4′′-((1,3,5-Triazine-2,4,6-triyl)tris(azanediyl))tris(N-hydroxybenzamide)]

IC50 (MMP-2): 77 nM | IC50 (MMP-9): 73 nM | IC50 (MMP-13): 360 nM | IC50 (MMP-7): 240 nM | IC50 (MMP-10): 101 nM
Molecule: COc1ccc(S(=O)(=O)N(CC(=O)NO)CC(C)C)cc1 [NNGH, N-isobutyl-N-(4-methoxyphenylsulfonyl)glycyl hydroxamic acid]

B1: andecaliximab (antibody, chains of the INN, looked up, V domains shown)
VH: QVQLQESGPGLVKPSETLSLTCTVSGFSLLSYGVHWVRQPPGKGLEWLGVIWTGGTTNYNSALMSRFTISKDDSKNTVYLKMNSLKTEDTAIYYCARYYYGMDYWGQGTLVTVSS
VL: DIQMTQSPSSLSASVGDRVTITCKASQDVRNTVAWYQQKPGKAPKLLIYSSSYRNTGVPDRFSGSGSGTDFTLTISSLQAEDVAVYYCQQHYITPYTFGGGTKVEIK
tumor growth and metastases incidence (tumor growth): reduced the tumor growth and metastases incidence
